The text below walks through data of patent US20090093469A1, “Phenylaminopropanol Derivatives and Methods of Their Use” (WYETH, priority 2004, published 2009).

Molecules are shown by their SMILES. Counter-ions that a name gives are not always drawn. Like-named read-outs stand apart in the source and are kept apart here.

The target in the test is T1, hNET (Homo sapiens, UniProt P23975).
T1 construct: expressed in transfected cells
Kind of test: Norepinephrine (NE) uptake assay in MDCK-Net6 cells stably transfected with human hNET. The test is classed as cell-based.

Where [1] appears, read: MDCK-Net6, read-out: % Inhibition @ 1 μM (hNET).
The mark [2] stands for this setting: test compound 1 μM, [3H]NE uptake, MDCK-Net6 cells, read-out: % Inhibition @ 1 μM (hNET).

T1 sequence (P23975 whole entry): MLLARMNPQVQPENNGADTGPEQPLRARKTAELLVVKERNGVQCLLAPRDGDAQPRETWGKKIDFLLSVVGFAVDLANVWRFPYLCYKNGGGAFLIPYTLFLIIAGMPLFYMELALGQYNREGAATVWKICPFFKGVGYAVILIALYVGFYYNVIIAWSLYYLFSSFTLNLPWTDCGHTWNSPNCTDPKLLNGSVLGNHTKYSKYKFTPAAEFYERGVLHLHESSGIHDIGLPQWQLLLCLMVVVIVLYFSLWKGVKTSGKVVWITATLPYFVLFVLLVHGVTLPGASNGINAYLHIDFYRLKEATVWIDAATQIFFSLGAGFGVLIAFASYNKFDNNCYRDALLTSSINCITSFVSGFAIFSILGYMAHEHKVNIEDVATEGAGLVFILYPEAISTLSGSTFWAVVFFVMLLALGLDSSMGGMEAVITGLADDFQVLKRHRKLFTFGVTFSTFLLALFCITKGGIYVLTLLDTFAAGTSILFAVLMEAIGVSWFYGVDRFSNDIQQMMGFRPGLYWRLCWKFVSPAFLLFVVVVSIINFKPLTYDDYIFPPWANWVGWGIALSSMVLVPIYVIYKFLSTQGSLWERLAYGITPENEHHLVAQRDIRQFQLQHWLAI

Take `CNC[C@@H](O)[C@H](c1ccccc1)n1ccc2cc(Cl)ccc21` [Example 152, (1S,2R)-1-(5-chloro-1H-indol-1-yl)-3-(methylamino)-1-phenylpropan-2-ol hydrochloride]: the inhibition at 1 µM under setting [1] came out at 96.2%.

For the compound `NC[C@H](O)[C@@H](c1ccccc1)n1ccc2cc(F)ccc21` (racemic) [Example 19, (1RS,2SR)-3-amino-1-(5-fluoro-1H-indol-1-yl)-1-phenylpropan-2-ol hydrochloride], under setting [2], the inhibition at 1 µM was determined as 31.6%. Regarding `CNC[C@@H](O)[C@H](c1cc(F)cc(F)c1)N1CCc2ccccc21` [Example 158, (1S,2R)-1-(3,5-difluorophenyl)-1-(2,3-dihydro-1H-indol-1-yl)-3-(methylamino)propan-2-ol hydrochloride], the inhibition at 1 µM under setting [2] was found to be 99.6%.

Take `CNC[C@@H](O)[C@H](c1ccccc1)n1c(=O)n(C2CCC2)c2ccccc21` [Example 197, 1-cyclobutyl-3-[(1S,2R)-2-hydroxy-3-(methylamino)-1-phenylpropyl]-1,3-dihydro-2H-benzimidazol-2-one hydrochloride]: under setting [1], the inhibition at 1 µM was determined as 97%. Consider `CNC[C@@H](O)[C@H](c1ccccc1)n1ccc2cccnc21` [Example 82, (1S,2R)-3-(methylamino)-1-phenyl-1-(1H-pyrrolo[2,3-b]pyridin-1-yl)propan-2-ol], for which the inhibition at 1 µM under setting [2] stood at 53.9%. Still for that read-out and setting: with `O[C@@H](CNCC1CCCCC1)[C@@H](c1ccccc1)n1ccc2ccccc21` (racemic) [Example 8, (1RS,2SR)-3-[(cyclohexylmethyl)amino]-1-(1H-indol-1-yl)-1-phenylpropan-2-ol hydrochloride] the figure was 53.4%. On to `CNC[C@@H](O)[C@H](c1cccc(F)c1)n1ccc2ccncc21` [Example 86, (1S,2R)-3-methylamino-1-(3-fluorophenyl)-1-(1H-pyrrolo[2,3-c]pyridin-1-yl) propan-2-ol dihydrochloride], for which the inhibition at 1 µM under setting [2] worked out at 52.7%. For the compound `CNC[C@@H](O)[C@H](c1cccc(OC)c1)n1ccc2ccccc21` [Example 69, (1S,2R)-1-(1H-indol-1-yl)-1-(3-methoxyphenyl)-3-(methylamino)propan-2-ol hydrochloride], the inhibition at 1 µM under setting [1] is 87.5%.

With `CCCn1c(=O)n([C@@H](c2ccccc2)[C@H](O)CNC)c2cc(F)ccc21` [Example 198, 5-fluoro-3-[(1S,2R)-2-hydroxy-3-(methylamino)-1-phenylpropyl]-1-propyl-1,3-dihydro-2H-benzimidazol-2-one hydrochloride], the inhibition at 1 µM under setting [1] came out at 97.7%. In the case of `CCCn1c(=O)n([C@@H](c2ccccc2)[C@H](O)CNC)c2ccccc21` [Example 193, 1-[(1S,2R)-2-hydroxy-3-(methylamino)-1-phenylpropyl]-3-propyl-1,3-dihydro-2H-benzimidazol-2-one hydrochloride], the inhibition at 1 µM under setting [1] is 98.4%. In the case of `CNC[C@@H](O)[C@H](c1ccccc1)N1C(=O)C(C)(C)c2ccccc21` [Example 100, 1-[(1S,2R)-2-hydroxy-3-(methylamino)-1-phenylpropyl]-3,3-dimethyl-1,3-dihydro-2H-indol-2-one hydrochloride], the inhibition at 1 µM under setting [2] is 94.2%.

Take `CNC[C@@H](O)[C@H](c1ccccc1)N1C(=O)C2(CCCC2)c2ccccc21` [Example 108, 1′-[(1S,2R)-2-hydroxy-3-(methylamino)-1-phenylpropyl]spiro-[cyclopentane-1,3′-indol]-2′(1′H)-one hydrochloride]: the inhibition at 1 µM under setting [2] is 98.7%. As to `CNC[C@@H](O)[C@H](c1cccc(C(F)(F)F)c1)n1ccc2ccccc21` [Example 136, (1S,2R)-1-(1H-indol-1-yl)-3-(methylamino)-1-[3-(trifluoromethyl)phenyl]propan-2-ol hydrochloride], under setting [1], the inhibition at 1 µM came to 97%. Take `CNC[C@@H](O)[C@H](c1ccccc1)n1c(C)nc2ccccc21` (racemic) [Example 73, (1RS,2SR)-3-(methylamino)-1-(2-methyl-1H-benzimidazol-1-yl)-1-phenylpropan-2-ol hydrochloride]: the inhibition at 1 µM under setting [2] amounted to 21.8%. Consider `CNC[C@@H](O)[C@](C)(c1ccccc1)n1ccc2ccccc21` [Example 191, (2R,3S)-3-(1H-indol-1-yl)-1-(methylamino)-3-phenylbutan-2-ol hydrochloride], for which the inhibition at 1 µM under setting [2] is 63.9%. With `CNC[C@@H](O)[C@H](c1ccccc1)n1c(=O)n(C(C)C)c2cccc(F)c21` [Example 201, 4-Fluoro-3-(2-hydroxy-3-methylamino-1-phenyl-propyl)-1-isopropyl-1,3-dihydro-benzimidazol-2-one hydrochloride], the inhibition at 1 µM under setting [1] is 98.8%. `CCNC[C@@H](O)[C@H](c1cccc(F)c1)n1ccc2ccccc21` [Example 55, (1S,2R)-3-(ethylamino)-1-(3-fluorophenyl)-1-(1H-indol-1-yl)propan-2-ol hydrochloride]: the inhibition at 1 µM under setting [2] worked out at 61.1%.

`CCCNC[C@@H](O)[C@H](c1cccc(F)c1)n1ccc2ccccc21` [Example 57, (1S,2R)-1-(3-fluorophenyl)-1-(1H-indol-1-yl)-3-(propylamino)propan-2-ol hydrochloride]: under setting [2], the inhibition at 1 µM is 17.5%. On to `CNC[C@@H](O)[C@H](c1ccccc1)n1ccc2ccc(C)cc21` [Example 90, (1S,2R)-3-(methylamino)-1-(6-methyl-1H-indol-1-yl)-1-phenylpropan-2-ol hydrochloride], for which the inhibition at 1 µM under setting [2] is 73.1%. As for `CNC[C@@H](O)[C@H](c1cccc(F)c1)n1cc(-c2ccc(C(F)(F)F)cc2)c2ccccc21` [Example 173, (1S,2R)-1-(3-fluorophenyl)-3-(methylamino)-1-{3-[4-(trifluoromethyl)phenyl]-1H-indol-1-yl}propan-2-ol hydrochloride], under setting [2], the inhibition at 1 µM worked out at 67.5%. `CNC[C@@H](O)[C@H](c1cccc(F)c1)n1cc(-c2ccccc2)c2ccccc21` [Example 98, ((1S,2R)-1-(3-fluorophenyl)-3-(methylamino)-1-(3-phenyl-1H-indol-1-yl)propan-2-ol hydrochloride]: the inhibition at 1 µM under setting [2] was determined as 99.1%.

As for `CNC[C@@H](O)[C@H](c1ccccc1)N1C(=O)C(C)(C)c2c(F)cccc21` [Example 196, 4-fluoro-1-[(1S,2R)-2-hydroxy-3-(methylamino)-1-phenylpropyl]-3,3-dimethyl-1,3-dihydro-2H-indol-2-one hydrochloride], the inhibition at 1 µM under setting [2] is 94.6%. Same read-out and setting: in the case of `NCC[C@@H](O)[C@H](c1cccc(Cl)c1)n1ccc2ccccc21` [Example 42, (1S,2R)-4-amino-1-(3-chlorophenyl)-1-(1H-indol-1-yl)butan-2-ol hydrochloride] it was 95.7%.
